Experimental data: publication PMC9322761, “Design, Synthesis and Biological Characterization of Histone Deacetylase 8 (HDAC8) Proteolysis Targeting Chimeras (PROTACs) with Anti-Neuroblastoma Activity” (International Journal of Molecular Sciences, 2022)
Like-named read-outs stand apart in the source and are kept apart here.

How the values were obtained:
[1] = biological target: HDAC1 (Homo sapiens, UniProt Q13547); experiment: In vitro HDAC inhibitory activity assay, recombinant HDAC1 (fluorogenic substrate ZMAL); format: biochemical; parameters: purchased BPS Biosciences; conditions: for inhibition at 1 µM / inhibition at 10 µM: read-out: HDAC1 % inhib. at given conc.
Chain of HDAC1 (Q13547 whole entry): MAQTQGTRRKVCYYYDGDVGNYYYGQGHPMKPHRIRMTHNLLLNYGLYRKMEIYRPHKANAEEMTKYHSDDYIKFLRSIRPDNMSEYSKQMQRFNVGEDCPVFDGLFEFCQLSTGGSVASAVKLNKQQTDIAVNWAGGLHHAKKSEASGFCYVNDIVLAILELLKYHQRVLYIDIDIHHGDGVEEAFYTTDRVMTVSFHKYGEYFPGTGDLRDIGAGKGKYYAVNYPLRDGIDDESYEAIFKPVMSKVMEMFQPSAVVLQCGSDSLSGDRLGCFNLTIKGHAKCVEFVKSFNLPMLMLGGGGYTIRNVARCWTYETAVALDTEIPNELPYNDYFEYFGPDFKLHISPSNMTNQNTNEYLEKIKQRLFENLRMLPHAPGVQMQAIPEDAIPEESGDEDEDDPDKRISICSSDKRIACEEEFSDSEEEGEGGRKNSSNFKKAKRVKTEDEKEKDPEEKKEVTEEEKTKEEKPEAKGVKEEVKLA
Description: (§1) The in vitro testing on recombinant HDACs was performed as previously described. Recombinant human HDAC1 and −6 were purchased from BPS Biosciences. The enzyme inhibition was determined by using a reported homogenous fluorescence assay. […] Fluorescence intensity was measured at an excitation wavelength of 390 nm and an emission wavelength of 460 nm in a microtiter plate reader (BMG Polarstar).
(§2) Inhibition was measured at increasing concentration and IC50 was calculated by nonlinear regression with Origin 9.0G software.

[2] = biological target: T1, HDAC6 (Homo sapiens, UniProt Q9UBN7); experiment: In vitro HDAC inhibitory activity assay, recombinant HDAC6 (fluorogenic substrate ZMAL); format: biochemical; parameters: purchased BPS Biosciences; conditions: for inhibition at 1 µM / inhibition at 10 µM: read-out: HDAC6 % inhib. at given conc.
T1 sequence (Q9UBN7 1-1215): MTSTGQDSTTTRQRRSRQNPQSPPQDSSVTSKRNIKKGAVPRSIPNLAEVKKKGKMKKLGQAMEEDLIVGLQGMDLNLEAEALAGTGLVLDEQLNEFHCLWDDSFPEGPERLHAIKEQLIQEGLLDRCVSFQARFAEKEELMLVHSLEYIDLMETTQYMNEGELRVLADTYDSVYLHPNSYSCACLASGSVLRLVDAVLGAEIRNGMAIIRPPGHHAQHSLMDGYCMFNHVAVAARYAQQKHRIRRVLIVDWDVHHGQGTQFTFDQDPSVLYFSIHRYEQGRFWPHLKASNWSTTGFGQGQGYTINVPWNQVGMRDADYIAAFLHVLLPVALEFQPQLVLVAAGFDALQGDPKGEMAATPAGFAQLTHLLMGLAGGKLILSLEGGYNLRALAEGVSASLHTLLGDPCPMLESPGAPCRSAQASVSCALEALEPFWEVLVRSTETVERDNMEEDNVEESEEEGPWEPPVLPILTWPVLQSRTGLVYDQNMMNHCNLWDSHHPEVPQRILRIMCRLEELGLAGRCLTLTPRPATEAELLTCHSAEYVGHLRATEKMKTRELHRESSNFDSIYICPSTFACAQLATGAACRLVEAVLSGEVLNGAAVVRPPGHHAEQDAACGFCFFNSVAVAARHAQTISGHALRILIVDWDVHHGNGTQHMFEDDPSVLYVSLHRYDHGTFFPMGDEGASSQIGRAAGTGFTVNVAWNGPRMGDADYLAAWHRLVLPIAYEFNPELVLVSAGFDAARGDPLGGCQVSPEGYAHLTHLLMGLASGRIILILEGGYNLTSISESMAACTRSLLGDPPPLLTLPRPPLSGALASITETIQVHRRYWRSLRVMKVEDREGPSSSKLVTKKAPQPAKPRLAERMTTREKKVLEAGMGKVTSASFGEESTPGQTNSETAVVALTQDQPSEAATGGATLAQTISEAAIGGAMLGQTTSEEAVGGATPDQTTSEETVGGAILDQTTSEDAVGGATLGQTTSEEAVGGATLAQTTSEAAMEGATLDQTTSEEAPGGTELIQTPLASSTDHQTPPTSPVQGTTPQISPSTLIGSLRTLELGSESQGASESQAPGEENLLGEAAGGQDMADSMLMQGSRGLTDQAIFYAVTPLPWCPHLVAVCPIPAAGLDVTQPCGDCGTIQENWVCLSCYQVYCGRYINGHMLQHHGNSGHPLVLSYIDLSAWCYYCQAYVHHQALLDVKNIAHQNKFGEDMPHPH
Description: as §1, §2

[3] = biological target: T2, HDAC8 (Homo sapiens, UniProt Q9BY41); experiment: In vitro HDAC8 activity assay (Fluor de Lys-HDAC8); format: biochemical; parameters: made in house; conditions: for SI (HDAC6/HDAC8): selectivity index, HDAC6 over HDAC8
T2 sequence (Q9BY41 1-377): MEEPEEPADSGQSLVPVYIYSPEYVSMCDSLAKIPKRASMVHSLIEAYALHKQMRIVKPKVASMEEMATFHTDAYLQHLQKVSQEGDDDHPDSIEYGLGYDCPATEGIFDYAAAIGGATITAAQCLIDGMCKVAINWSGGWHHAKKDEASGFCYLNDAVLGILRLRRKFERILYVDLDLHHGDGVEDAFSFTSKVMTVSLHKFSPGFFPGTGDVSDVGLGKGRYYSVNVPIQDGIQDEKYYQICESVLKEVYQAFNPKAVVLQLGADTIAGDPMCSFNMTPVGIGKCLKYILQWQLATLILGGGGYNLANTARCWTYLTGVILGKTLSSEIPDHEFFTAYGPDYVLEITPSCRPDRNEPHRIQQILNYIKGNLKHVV
Description: Recombinant hHDAC8 was produced by Romier et al. in Strasbourg. The HDAC8 activity assays were performed according to the commercial HDAC8 Fluorometric Drug Discovery Kit (Fluor de Lys(R)-HDAC8, BML-KI178) corresponding to the instructions of the manufacturer. As substrate a tetrapeptide connected to aminomethylcoumarin (AMC) H2N-Arg- His-Lys(Ac)-Lys(Ac)-AMC was synthesized as previously described. The enzyme was incubated for 90 min at 37 °C, with a substrate concentration of 50 µM and increasing concentrations of inhibitors. The stop-solution-containing inhibitor was added to stop the hHDAC8 activity, and Trypsin was added to release the AMC. The solution was incubated for 20 min at 37 °C to develop the assay.
as §2

[4] = biological target: T2, HDAC8; experiment: HDAC8 degradation in SK-N-BE(2)-C neuroblastoma cells (Western blot); format: cell-based; parameters: endogenous in cells; host or cells: SK-N-BE(2)-C
Description: Whole cell lysates from treated SK-N-BE(2)-C neuroblastoma cells were taken and the protein levels for HDAC8 and the acetylation of its substrate SMC3 were determined (Figure 6). As a control for HDAC6, we also assessed acetylation levels of α-tubulin. […] Western blot analysis was performed as described previously (Kolbinger et al.).
Figure 6 (A) SK-N-BE(2)-C neuroblastoma cells were treated for indicated time points with 10 µM of PROTACs. Degradation of HDAC8 and acetylation of HDAC8 target was analyzed via Western blot. (B) SK-N-BE(2)-C neuroblastoma cells were treated for 6 h with indicated concentrations of HyT_1p, CRBN_1b and HyT_1m. Acetylation of HDAC8 target SMC3 and HDAC6 target tubulin, as well as total HDAC8 levels, were assessed by Western blot. Quantified ac-SMC3 or ac-tubulin expression, respectively, was normalized to the respective tubulin loading control and to the solvent control (DMSO). This quantification is reflected by the numbers below each blot. […] Total HDAC6, total HDAC1, total HDAC8, and acetyl-histone H4 expression levels, were assessed by Western blot. Total GAPDH protein levels served as a loading control (LC). * unspecific bands obtained through reprobing of the membrane.

[5] = tested on: SK-N-BE(2)-C cells; experiment: Colony formation assay in neuroblastoma cells; format: cell-based, human; conditions: 5 and 10 μM, treatment 96 h, then 6 days without treatment
Description: In order to measure the functional consequence of HDAC8 inhibition, two different cell lines were used: SK-N-BE(2)-C cells, which display MYCN amplification and non-functional p53; and IMR-32 cells having p53 wild type, which both respond with growth arrest and signs of neuronal differentiation upon knockdown or selective inhibition of HDAC8. Growth arrest was determined by colony formation and viability assays. Cells were treated with 5 and 10 μM of each of the CRBN_ based HDAC8 PROTACs having a triazole linker (CRBN_1d, CRBN_1e, CRBN_1f) for 96 h, followed by culturing for another 6 days without treatment (Figure 5A). This assesses whether the treatment impairs the clonogenic growth capacity of tumor cells, indicating effectiveness of compounds on the survival and proliferation of tumor cells.
In six-well plates, 500 cells were seeded and treated as indicated. Viable colonies were stained after a minimum of 10 days with crystal violet. For quantification, the mean intensity of each well of the 8-bit binary picture was measured with ImageJ software (U. S. National Institutes of Health, Bethesda, MD, USA; http://imagej.nih.gov/ij/ (accessed on 1 March 2022)).
Figure 5 (A) Neuroblastoma SK-N-BE(2)-C cells; Colony Assay, 10 days (compound treatment within first 96 h). Stained with crystal violet and quantified with ImageJ. (B,C) Trypan Blue assay for detection of dead cells. Neuroblastoma IMR-32 cells were either treated with 5 µM (B) or 10 µM (C). (D,E) Cell proliferation assessed via counting of viable cells. IMR-32 cells were either treated with 5 µM (D) or 10 µM (E) PROTACs. HDAC8i PCI-34501 served as a positive control, untreated (MEM) and solvent (DMSO) treated cells served as negative controls.

[6] = Table 2, inhibitors synthesized in this paper (S1), read-out: HDAC1 IC50
[7] = Table 2, inhibitors synthesized in this paper (S1), read-out: HDAC6 IC50
[8] = Table 2, inhibitors synthesized in this paper (S1)
[9] = Table 1, PROTACs, read-out: HDAC6 IC50

SMILES	IC50 ([3]; Table 1, PROTACs) [nM]	SI (HDAC6/HDAC8) [3]	inhibition at 1 µM [1] [%]	inhibition at 10 µM [1] [%]	inhibition at 1 µM [2] [%]	inhibition at 10 µM [2] [%]	further results
COc1ccc(CNc2cc(C(=O)NO)ccc2OC)cc1 [2h]							IC50 [1, 6]: > 20000 nM; IC50 [2, 7]: 150 ± 1 nM; IC50 [3, 8]: 10 ± 1 nM
O=C(COc1ccc(CNc2cc(C(=O)NO)ccc2Cl)cc1)OCc1ccccc1 [2i]							IC50 [1, 6]: > 20000 nM; IC50 [2, 7]: 7400 ± 600 nM; IC50 [3, 8]: 410 ± 50 nM
COc1ccc(C(=O)NO)cc1NC(=O)c1ccc(NC(=O)CCCCCNc2cccc3c2C(=O)N(C2CCC(=O)NC2=O)C3=O)cc1 (stereo not shown) [CRBN_1a]	90 ± 30	2					IC50 [1]: 4370 ± 650 nM; IC50 [2]: 220 ± 60 nM
COc1ccc(C(=O)NO)cc1NC(=O)c1ccc(CNC(=O)CCCCCCCNc2cccc3c2C(=O)N(C2CCC(=O)NC2=O)C3=O)cc1 (stereo not shown) [CRBN_1c]	150 ± 10	2	22.2	40.1			IC50 [2]: 250 ± 20 nM
Cc1ccc(C(=O)NO)cc1NCc1ccc(OCc2cn(CCCCCC(=O)Nc3cccc4c3C(=O)N(C3CCC(=O)NC3=O)C4=O)nn2)cc1 (stereo not shown) [CRBN_1d]	370 ± 50	18					HDAC8 degradation ([4]; SK-N-BE(2)-C cells, up to 10 µM, Western blot): failed to degrade HDAC8; IC50 [1]: 13100 ± 600 nM; Effect on colony formation [5]: strongest effect on colony formation; IC50 [2]: 6700 ± 600 nM
O=C1CCC(N2C(=O)c3cccc(NC(=O)CCCCCn4cc(COc5ccc(CNc6cc(C(=O)NO)ccc6Cl)cc5)nn4)c3C2=O)C(=O)N1 (stereo not shown) [CRBN_1f]	250 ± 30	5					IC50 ([1]; Table 1, PROTACs, read-out: HDAC1 IC50): 10800 ± 700 nM; Effect on colony formation [5]: inactive; IC50 [2, 9]: 1300 ± 300 nM
O=C(COc1ccc(CNc2cc(C(=O)NO)ccc2Cl)cc1)NCCCCCNc1cccc2c1C(=O)N(C1CCC(=O)NC1=O)C2=O (stereo not shown) [CRBN_1g]	590 ± 110		10.1	69	24.8	72.6	
O=C(COc1ccc(CNc2cc(C(=O)NO)ccc2Cl)cc1)NCCCOCCOCCOCCCNc1cccc2c1C(=O)N(C1CCC(=O)NC1=O)C2=O (stereo not shown) [CRBN_1h]	330 ± 190				33.5	66.8	IC50 [1]: 3910 ± 480 nM
O=C(COc1ccc(C(=O)Nc2cc(C(=O)NO)ccc2Cl)cc1)NCCCOCCOCCOCCCNc1cccc2c1C(=O)N(C1CCC(=O)NC1=O)C2=O (stereo not shown) [CRBN_1i]	650 ± 140		20.7	67.4	85.4	92.3	
O=C(COc1ccc(C(=O)Nc2cccc(C(=O)NO)c2)cc1)NCCCOCCOCCOCCCNc1cccc2c1C(=O)N(C1CCC(=O)NC1=O)C2=O (stereo not shown) [CRBN_1j]	4840 ± 1050		13.9	60	46.2	80.9	
COc1ccc(C(=O)NO)cc1NC(=O)c1ccc(NC(=O)CCCCCCCNC(=O)CC23CC4CC(CC(C4)C2)C3)cc1 [HyT_1n]	390 ± 30	2	38.6	30			IC50 [2, 9]: 820 ± 50 nM
COc1ccc(C(=O)NO)cc1NC(=O)c1ccc(CNC(=O)CCCCCCCNC(=O)CC23CC4CC(CC(C4)C2)C3)cc1 [HyT_1o]	90 ± 10	4	9.8	52.6			IC50 [2, 9]: 370 ± 30 nM
Cc1ncsc1-c1ccc(CNC(=O)[C@@H]2C[C@@H](O)CN2C(=O)[C@@H](NC(=O)CCCCCNC(=O)COc2ccc(CNc3cc(C(=O)NO)ccc3Cl)cc2)C(C)(C)C)cc1 [VHL_1l]	720 ± 150		6	45.5	8.3	72.4	
C[C@@H]1C[C@@H]([C@H](O)CC2CC(=O)NC(=O)C2)C(=O)[C@@H](C)C1 [cycloheximide, reference compound]							HDAC8 degradation with de novo protein synthesis inhibited ([4]; 24 h, cycloheximide 35 nM, PROTAC 10 μM): no effect
